Laboratory results as given in patent publication US4393228A, “Epoxysuccinic acid derivatives” (Taisho Pharmaceutical Co., Ltd., priority 1977, dated 1983).
Where two headings read alike, the source gives them in different places.

Experiments:
papain = target: T1, papain (Carica papaya, UniProt P00784); test: Papain inhibitory activity (milk casein digestion); format: biochemical; details: papain 80 μg/ml 0.5 ml, cysteine, pH 6.8, 1% milk casein, 40° C., 10 minutes
T1 construct: purchased Sigma Chem. Co
T1 sequence (P00784 134-345): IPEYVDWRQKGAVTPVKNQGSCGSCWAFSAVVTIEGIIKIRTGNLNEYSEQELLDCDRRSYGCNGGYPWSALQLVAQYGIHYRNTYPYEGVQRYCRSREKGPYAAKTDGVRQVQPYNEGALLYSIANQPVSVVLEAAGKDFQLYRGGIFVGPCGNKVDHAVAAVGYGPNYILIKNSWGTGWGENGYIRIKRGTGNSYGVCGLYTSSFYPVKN
Summary of the method: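 Papain (80 μg/ml stock) preincubated 15 min at 40 °C with inhibitor, cysteine/EDTA activator and phosphate buffer pH 6.8. Then 1% milk casein digested 10 min at 40 °C, stopped with trichloroacetic acid and filtered; filtrate absorbance at 280 nm gives percent inhibition versus no-inhibitor control.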

[1] = tested on: adjuvant induced polyarthritis; test: Inhibition of adjuvant induced polyarthritis in rats (hind paw volume); format: in vivo, Sprague Dawley rat; details: Rattus norvegicus
Description: Effect of the compounds of this invention on the development of adjuvant-induced polyarthritis in rats was assayed as follows: Adjuvant arthritis was produced by a single intracutaneous injection of 0.1 ml of the adjuvant mixture containing heat-killed mycobacteria of the human Aoyama B strain suspended in liquid paraffin in 0.6% in the middle part of the distal tail of Sprague Dawley rat (female, 8 weeks old). […] The activity was measured as the mean inhibition percent for the increase of the hind paw volume of the 8 rats/group on the days 17 and 23 on which the legs become inflamed and reach maximum volumes. The compound Nos. in Table 2 are as defined in Examples as described hereinafter.

[2] = prior art compound; cited from earlier work
thiol proteases = details: U.S. Pat. No. 3,911,111; cited from earlier work
[3] = U.S. Pat. No. 3,911,111; cited from earlier work
[4] = 408 h, 100 mg/kg of body weight, daily oral, day 17, read-out: Inhibition % 17 days (increase of hind paw volume)
[5] = 552 h, 100 mg/kg of body weight, daily oral, day 23, read-out: Inhibition % 23 days (increase of hind paw volume)
[6] = po, 408 h, read-out: Inhibition % 17 days (increase of hind paw volume)
[7] = po, 552 h, read-out: Inhibition % 23 days (increase of hind paw volume)

Row | SMILES | ID50 (amount of inhibitor for 50% inhibition) (papain) | inhibition in vivo at 100 mg/kg [1, 4] [%] | inhibition in vivo at 100 mg/kg [1, 5] [%] | acceleration of vascular permeability (side effect) [2] | thiol protease inhibitory activity (thiol proteases) | anti-inflammatory activity [3] | inhibition in vivo at 100 mg/kg [1, 6] [%] | inhibition in vivo at 100 mg/kg [1, 7] [%]
1 | CCCCCOC(=O)[C@H]1O[C@@H]1C(=O)O (relative stereo) [EP-144, n-amyl potassium epoxysuccinate] | 0.34 γ | 33.3 | 32.1 | – | – | – | – | –
2 | O=C(O)[C@H]1O[C@@H]1C(=O)OCc1ccc(Cl)cc1 (relative stereo) [EP-116, p-chlorobenzyl potassium epoxysuccinate] | 0.32 γ | 35 | 33.5 | – | – | – | – | –
3 | CC(C)C[C@H](NC(=O)[C@H]1O[C@@H]1C(=O)O)C(=O)NCCCCN=C(N)N [E-64] | – | – | – | acceleration of vascular permeability | possessing thiol protease inhibitory activity | anti-inflammatory activity | – | –
4 | O=C(OC1CCCCC1)[C@@H]1O[C@H]1C(=O)OC1CCCCC1 (relative stereo) [EP-1, dicyclohexyl epoxysuccinate] | 1.98 γ | 82.1 | 77 | – | – | – | – | –
5 | O=C(O)[C@@H]1O[C@H]1C(=O)OC1CCCCC1 (relative stereo) [EP-2, cyclohexyl potassium epoxysuccinate] | 0.07 γ | 43.2 | 50 | – | – | – | – | –
6 | O=C(O)[C@@H]1O[C@H]1C(=O)OC1CCCC1 (relative stereo) [EP-26, cyclopentyl potassium epoxysuccinate] | 0.08 γ | 52 | 55.5 | – | – | – | – | –
7 | O=C(OCC1CCCO1)[C@@H]1O[C@H]1C(=O)OCC1CCCO1 (relative stereo) [EP-75, di-tetrahydro-2-furanmethyl epoxysuccinate] | 1.65 γ | 89.6 | 41 | – | – | – | – | –
8 | O=C(OCc1cccc(F)c1)[C@H]1O[C@@H]1C(=O)OCc1cccc(F)c1 (relative stereo) [EP-121, di-m-fluorobenzyl epoxysuccinate] | 0.46 γ | 53.6 | 38.9 | – | – | – | – | –
9 | O=C(OCCCc1ccccc1)[C@H]1O[C@@H]1C(=O)OCCCc1ccccc1 (relative stereo) [EP-131, di-3'-phenylpropyl epoxysuccinate] | 11.36 γ | 57.1 | 49.2 | – | – | – | – | –
10 | C[C@H]1CC[C@@H](OC(=O)[C@@H]2O[C@H]2C(=O)O[C@H]2CC[C@@H](C)CC2)CC1 (relative stereo) [EP-17, di-4'-cis-methylcyclohexyl epoxysuccinate] | 1.79 γ | 100 | 78.7 | – | – | – | – | –
11 | O=C(OC1CCCC1)[C@@H]1O[C@H]1C(=O)OC1CCCC1 (relative stereo) [EP-25, dicyclopentyl epoxysuccinate] | 3.03 γ | 52.6 | 77.8 | – | – | – | – | –
12 | CCOC(=O)[C@H]1O[C@@H]1C(=O)O (relative stereo) [EP-137, ethyl potassium epoxysuccinate] | 2.08 γ | 40 | 38.5 | – | – | – | – | –
13 | COc1ccc(COC(=O)[C@@H]2O[C@H]2C(=O)O)cc1 (relative stereo) [EP-102, p-methoxybenzyl potassium epoxysuccinate] | 0.36 γ | 28 | 31 | – | – | – | – | –
14 | O=C([O-])C1OC1C(=O)N[C@@H](Cc1ccccc1)C(=O)[O-].[K+].[K+] (stereo partly drawn) [EP-175, N-(3-carboxyoxirane-2-carbonyl)-L-phenylalanine dipotassium salt] | 1.90 γ | – | – | – | – | – | 32 | 31.5
15 | O=C(OCc1cccc2ccccc12)[C@@H]1O[C@H]1C(=O)OCc1cccc2ccccc12 (relative stereo) [EP-81, di-1'-naphthylmethyl epoxysuccinate] | 1.30 γ | 64.3 | 83.6 | – | – | – | – | –
16 | O=C(O)[C@H]1O[C@@H]1C(=O)OCc1ccccc1 (relative stereo) [EP-143, benzyl potassium epoxysuccinate] | 0.15 γ | 45.1 | 35.6 | – | – | – | – | –
17 | CC(C)C[C@H](NC(=O)C1OC1C(=O)[O-])C(=O)[O-].[K+].[K+] (stereo partly drawn) [EP-174, N-(3-carboxyoxirane-2-carbonyl)-L-leucine dipotassium salt] | 0.20 γ | – | – | – | – | – | 30.5 | 29
18 | O=C(OCc1cccs1)[C@@H]1O[C@H]1C(=O)OCc1cccs1 (relative stereo) [EP-79, di-2-thenyl epoxysuccinate] | 0.75 γ | 64.3 | 90.2 | – | – | – | – | –
19 | C=CCOC(=O)[C@H]1O[C@@H]1C(=O)O (relative stereo) [EP-140, allyl potassium epoxysuccinate] | 0.92 γ | – | – | – | – | – | – | –
20 | Cc1ccccc1COC(=O)[C@@H]1O[C@H]1C(=O)O (relative stereo) [EP-92, o-methylbenzyl potassium epoxysuccinate] | 0.10 γ | – | – | – | – | – | – | –
